Starred links: 1 amine or outer side, 2 acyl side, 3 side chain; linkers in the order of their positions; H or OH if unused. Non-standard residues stand in square brackets, D forms with d. Residues, ends and D or L forms follow the SMILES beside them. *: point of attachment. DOTA = O=C(O)CN1CCN(CC(=O)O)CCN(CC(=O)*)CCN(CC(=O)O)CC1; Bpa = N[C@@H](Cc1ccc(C(=O)c2ccccc2)cc1)C(=O)O; Ala(4-thiazolyl) = N[C@@H](Cc1cscn1)C(=O)O; d2Nal = N[C@H](Cc1ccc2ccccc2c1)C(=O)O; X2 = O=C(N(N[*:1])c1ccccn1)[*:2]; NHPh = c1ccc(N*)cc1; azaGly = NNC(=O)O; Sar = CNCC(=O)O
System: LHRH binding sites on human ovarian cancer cells (EFO-27)
Conditions: not given
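Note: Cell-associated radioactivity on confluent EFO-27 monolayers in 96-well plates, measured by microplate scintillation counting.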

EC50	Structure (SMILES)
12300 nM	CC(C)NCCCC[C@H](NC(=O)[C@H](Cc1c[nH]c2ccccc12)NC(=O)[C@@H](CCCNC(=N)N)NC(=O)[C@H](Cc1c[nH]cn1)NC(=O)[C@H](CO)NC(=O)[C@H](Cc1c[nH]c2ccccc12)NC(=O)[C@H](Cc1c[nH]cn1)NC(=O)CN(C)C(=O)CN1CCN(CC(=O)O)CCN(CC(=O)O)CCN(CC(=O)O)CC1)C(=O)N1CCC[C@H]1C(=O)NNC(N)=O [BRU-2675]
4200 nM	N=C(N)NCCC[C@H](NC(=O)[C@@H](Cc1ccc2ccccc2c1)NC(=O)CN1CCN(CC(=O)O)CCN(CC(=O)O)CCN(CC(=O)O)CC1)C(=O)N[C@@H](Cc1c[nH]c2ccccc12)C(=O)N[C@@H](CC(=O)O)C(=O)N[C@@H](Cc1c[nH]cn1)C(=O)N[C@H](CCCNC(=N)N)C(=O)N[C@@H](Cc1c[nH]c2ccccc12)C(=O)N[C@@H](Cc1ccc(C(=O)c2ccccc2)cc1)C(=O)N1CCC[C@H]1C(=O)NNC(N)=O [BRU-2954] ({DOTA}-[d2Nal]RWDH[dR]W[Bpa]P[azaGly]-NH2)
3550 nM	CN(CC(=O)N[C@@H](Cc1c[nH]cn1)C(=O)N[C@@H](Cc1c[nH]c2ccccc12)C(=O)N[C@@H](CO)C(=O)N[C@@H](Cc1c[nH]cn1)C(=O)N[C@H](CCCNC(=N)N)C(=O)N[C@@H](Cc1c[nH]c2ccccc12)C(=O)N[C@@H](Cc1ccc(CN)cc1)C(=O)N1CCC[C@H]1C(=O)NNC(N)=O)C(=O)CN1CCN(CC(=O)O)CCN(CC(=O)O)CCN(CC(=O)O)CC1 [BRU-2760]
580 nM	CN(C(=O)CN1CCN(CC(=O)O)CCN(CC(=O)O)CCN(CC(=O)O)CC1)[C@H](Cc1ccc2ccccc2c1)C(=O)N[C@@H](CCCNC(=N)N)C(=O)N[C@@H](Cc1c[nH]c2ccccc12)C(=O)N[C@@H](CO)C(=O)N[C@@H](Cc1c[nH]cn1)C(=O)N[C@H](CCCNC(=N)N)C(=O)N[C@@H](Cc1c[nH]c2ccccc12)C(=O)N[C@@H](Cc1ccc(C(=O)c2ccccc2)cc1)C(=O)N1CCC[C@H]1C(=O)NNC(N)=O [BRU-2965]
2600 nM	N=C(N)NCCC[C@H](NC(=O)[C@@H](Cc1ccc2ccccc2c1)NC(=O)CN1CCN(CC(=O)O)CCN(CC(=O)O)CCN(CC(=O)O)CC1)C(=O)N[C@@H](CCC(=O)O)C(=O)N[C@@H](CO)C(=O)N[C@@H](Cc1c[nH]cn1)C(=O)N[C@H](CCCNC(=N)N)C(=O)N[C@@H](Cc1c[nH]c2ccccc12)C(=O)N[C@@H](Cc1ccc(C(=O)c2ccccc2)cc1)C(=O)N1CCC[C@H]1C(=O)NNC(N)=O [BRU-3110] ({DOTA}-[d2Nal]RESH[dR]W[Bpa]P[azaGly]-NH2; C-terminus assumed)
7340 nM	CN(CC(=O)N[C@@H](Cc1c[nH]cn1)C(=O)N[C@@H](Cc1c[nH]c2ccccc12)C(=O)N[C@@H](CO)C(=O)N[C@@H](Cc1cscn1)C(=O)N[C@H](CCCNC(=N)N)C(=O)N[C@@H](Cc1c[nH]c2ccccc12)C(=O)N[C@@H](Cc1ccc(C(=O)c2ccccc2)cc1)C(=O)N1CCC[C@H]1C(=O)NNC(N)=O)C(=O)CN1CCN(CC(=O)O)CCN(CC(=O)O)CCN(CC(=O)O)CC1 [BRU-2769] ({DOTA}-[Sar]HWS[Ala(4-thiazolyl)][dR]W[Bpa]P[azaGly]-NH2; C-terminus assumed)

More lines, now with the values behind:

Structure (SMILES)	EC50
CN(CC(N)=O)NC(=O)[C@@H]1CCCN1C(=O)[C@H](Cc1ccc(C(=O)c2ccccc2)cc1)NC(=O)[C@H](Cc1c[nH]c2ccccc12)NC(=O)[C@@H](CCCNC(=N)N)NC(=O)[C@H](Cc1c[nH]cn1)NC(=O)[C@H](CO)NC(=O)[C@H](Cc1c[nH]c2ccccc12)NC(=O)[C@H](CCCNC(=N)N)NC(=O)[C@@H](Cc1ccc2ccccc2c1)NC(=O)CN1CCN(CC(=O)O)CCN(CC(=O)O)CCN(CC(=O)O)CC1 [compound 2967]	440 nM
CNCC(=O)N[C@@H](CCCNC(=N)N)C(=O)N[C@@H](Cc1c[nH]c2ccccc12)C(=O)N[C@@H](CO)C(=O)N[C@@H](Cc1c[nH]cn1)C(=O)N[C@H](CCCNC(=N)N)C(=O)N[C@@H](Cc1c[nH]c2ccccc12)C(=O)N[C@@H](Cc1ccc(C(=O)c2ccccc2)cc1)C(=O)N1CCC[C@H]1C(=O)NCCOCCOCCNC(=O)CN1CCN(CC(=O)O)CCN(CC(=O)O)CCN(CC(=O)O)CC1 [compound 3043]	330 ± 180 nM
N=C(N)NCCC[C@H](NC(=O)[C@@H](Cc1ccc2ccccc2c1)NC(=O)CN1CCN(CC(=O)O)CCN(CC(=O)O)CCN(CC(=O)O)CC1)C(=O)N[C@@H](Cc1c[nH]c2ccccc12)C(=O)N[C@@H](CO)C(=O)N[C@@H](Cc1c[nH]cn1)C(=O)N[C@H](CCCNC(=N)N)C(=O)N[C@@H](Cc1c[nH]c2ccccc12)C(=O)O [compound 3046] (HELM PEPTIDE1{[O=C(O)CN1CCN(CC(=O)O)CCN(CC(=O)[*:2])CCN(CC(=O)O)CC1].[O=C([C@@H](Cc1ccc2ccccc2c1)N[*:1])[*:2]].R.W.S.H.[dR].W}$$$$V2.0; N-terminus assumed)	15900 nM
N=C(N)NCCC[C@H](NC(=O)[C@@H](Cc1ccc2ccccc2c1)NC(=O)CN1CCN(CC(=O)O)CCN(CC(=O)O)CCN(CC(=O)O)CC1)C(=O)N[C@@H](Cc1c[nH]c2ccccc12)C(=O)N[C@@H](CO)C(=O)N[C@@H](Cc1c[nH]cn1)C(=O)N[C@H](CCCNC(=N)N)C(=O)N[C@@H](Cc1c[nH]c2ccccc12)C(=O)N[C@@H](Cc1ccc(C(=O)c2ccccc2)cc1)C(=O)N1CCC[C@H]1C(=O)NNC(=O)NCCCCN [compound 3019]	900 nM
N=C(N)NCCC[C@H](NC(=O)[C@@H](Cc1ccc2ccccc2c1)NC(=O)CN1CCN(CC(=O)O)CCN(CC(=O)O)CCN(CC(=O)O)CC1)C(=O)N[C@@H](Cc1c[nH]c2ccccc12)C(=O)N[C@@H](CO)C(=O)N[C@@H](Cc1c[nH]cn1)C(=O)N[C@H](CCCNC(=N)N)C(=O)N[C@@H](Cc1c[nH]c2ccccc12)C(=O)N[C@@H](Cc1ccc(C(=O)c2ccccc2)cc1)C(=O)N1CCC[C@H]1C(=O)NC(=N)N [compound 2984]	400 nM
CNCC(=O)N[C@@H](CCCNC(=N)N)C(=O)N[C@@H](Cc1c[nH]c2ccccc12)C(=O)N[C@@H](CO)C(=O)N[C@@H](Cc1c[nH]cn1)C(=O)N[C@H](CCCNC(=N)N)C(=O)N[C@@H](Cc1c[nH]c2ccccc12)C(=O)N[C@@H](Cc1ccc(C(=O)c2ccccc2)cc1)C(=O)N1CCC[C@H]1C(=O)NCCOCCN [compound 3007]	220 nM
CN(CC(=O)N[C@@H](Cc1c[nH]c2ccccc12)C(=O)N[C@@H](CO)C(=O)N[C@@H](Cc1cscn1)C(=O)N[C@H](CCCNC(=N)N)C(=O)N[C@@H](Cc1c[nH]c2ccccc12)C(=O)N[C@@H](Cc1ccc(C(=O)c2ccccc2)cc1)C(=O)N1CCC[C@H]1C(=O)NNC(N)=O)C(=O)CN1CCN(CC(=O)O)CCN(CC(=O)O)CCN(CC(=O)O)CC1 [compound 2740] ({DOTA}-[Sar]WS[Ala(4-thiazolyl)][dR]W[Bpa]P[azaGly]-NH2)	5530 nM
CN(CC(=O)N[C@@H](Cc1c[nH]cn1)C(=O)N[C@@H](Cc1c[nH]c2ccccc12)C(=O)N[C@@H](CO)C(=O)N[C@@H](Cc1c[nH]cn1)C(=O)N[C@H](CCCNC(=N)N)C(=O)N[C@@H](Cc1c[nH]c2ccccc12)C(=O)N[C@@H](Cc1ccccc1)C(=O)N1CCC[C@H]1C(=O)NNC(N)=O)C(=O)CN1CCN(CC(=O)O)CCN(CC(=O)O)CCN(CC(=O)O)CC1 [BRU-2730] (HELM PEPTIDE1{[O=C(O)CN1CCN(CC(=O)O)CCN(CC(=O)[*:2])CCN(CC(=O)O)CC1].[Sar].H.W.S.H.[dR].W.F.P.[O=C(NN[*:1])[*:2]].[am]}$$$$V2.0)	12900 nM

Same assay, conditions: EFO-27 cells, competition with [125I-Tyr8]BRU-2477, 90 min

Structure (SMILES)	EC50
CN(CC(=O)N[C@@H](Cc1c[nH]cn1)C(=O)N[C@@H](Cc1c[nH]c2ccccc12)C(=O)N[C@@H](CO)C(=O)N[C@@H](Cc1c[nH]cn1)C(=O)N[C@H](CO)C(=O)N[C@@H](Cc1c[nH]c2ccccc12)C(=O)N[C@@H](Cc1ccc(C(=O)c2ccccc2)cc1)C(=O)N1CCC[C@H]1C(=O)NNC(N)=O)C(=O)CN1CCN(CC(=O)O)CCN(CC(=O)O)CCN(CC(=O)O)CC1 [compound 2761] ({DOTA}-[Sar]HWSH[dS]W[Bpa]P[azaGly]-NH2)	13600 nM
N=C(N)NCCC[C@H](NC(=O)[C@@H](Cc1ccc2ccccc2c1)NC(=O)CN1CCN(CC(=O)O)CCN(CC(=O)O)CCN(CC(=O)O)CC1)C(=O)N[C@@H](Cc1c[nH]c2ccccc12)C(=O)N[C@@H](CO)C(=O)N[C@@H](Cc1c[nH]cn1)C(=O)N[C@H](CCCNC(=N)N)C(=O)N[C@@H](Cc1c[nH]c2ccccc12)C(=O)N[C@@H](Cc1ccc(C(=O)c2ccccc2)cc1)C(=O)N1CCC[C@H]1C(=O)NCC(=O)NN(C(=O)Nc1ccccc1)c1ccccn1 [compound 2989] ({DOTA}-[d2Nal]RWSH[dR]W[Bpa]PG[X2]-NHPh)	1130 nM
CN(CC(=O)N[C@@H](Cc1c[nH]cn1)C(=O)N[C@@H](Cc1c[nH]c2ccccc12)C(=O)N[C@@H](CO)C(=O)N[C@@H](Cc1c[nH]cn1)C(=O)N[C@H](CCCCNC(=N)N)C(=O)N[C@@H](Cc1c[nH]c2ccccc12)C(=O)N[C@@H](Cc1ccc(C(=O)c2ccccc2)cc1)C(=O)N1CCC[C@H]1C(=O)NNC(N)=O)C(=O)CN1CCN(CC(=O)O)CCN(CC(=O)O)CCN(CC(=O)O)CC1 [BRU-2893]	2600 nM

Same assay, conditions: Table 5: modifications of amino acids at positions 1 and 2; in vitro binding on EFO-27 cells

Structure (SMILES)	EC50
N=C(N)NCCC[C@@H](NC(=O)[C@H](Cc1c[nH]cn1)NC(=O)[C@H](CO)NC(=O)[C@H](Cc1c[nH]c2ccccc12)NC(=O)[C@H](Cc1c[nH]cn1)NC(=O)[C@H](Cc1ccccc1)NC(=O)CN1CCN(CC(=O)O)CCN(CC(=O)O)CCN(CC(=O)O)CC1)C(=O)N[C@@H](Cc1c[nH]c2ccccc12)C(=O)N[C@@H](Cc1ccc(C(=O)c2ccccc2)cc1)C(=O)N1CCC[C@H]1C(=O)NNC(N)=O [BRU-2735]	1140 nM

Same assay, conditions: Table 11: modification of amino acid at position 5; EFO-27 cells

Structure (SMILES)	EC50
CC(C)C[C@H](NC(=O)[C@@H](CCCNC(=N)N)NC(=O)[C@H](Cc1ccc(O)cc1)NC(=O)[C@H](CO)NC(=O)[C@H](Cc1c[nH]c2ccccc12)NC(=O)[C@H](Cc1c[nH]cn1)NC(=O)CN(C)C(=O)CN1CCN(CC(=O)O)CCN(CC(=O)O)CCN(CC(=O)O)CC1)C(=O)N[C@@H](Cc1ccc(C(=O)c2ccccc2)cc1)C(=O)N1CCC[C@H]1C(=O)NNC(N)=O [compound 2670] ({DOTA}-[Sar]HWSY[dR]L[Bpa]P[azaGly]-NH2)	8840 nM

Same assay, conditions: ratio of EC50 to BRU-2813 (EC50=0.33 μM)

Structure (SMILES)	binding potency, times lower than BRU-2813
N=C(N)NCCC[C@H](NC(=O)[C@@H](Cc1ccc2ccccc2c1)NC(=O)CN1CCN(CC(=O)O)CCN(CC(=O)O)CCN(CC(=O)O)CC1)C(=O)N[C@@H](Cc1c[nH]c2ccccc12)C(=O)N[C@@H](CC(=O)O)C(=O)N[C@@H](Cc1c[nH]cn1)C(=O)N[C@H](CCCNC(=N)N)C(=O)N[C@@H](Cc1c[nH]c2ccccc12)C(=O)N[C@@H](Cc1ccc(C(=O)c2ccccc2)cc1)C(=O)N1CCC[C@H]1C(=O)NNC(N)=O [BRU-2954] ({DOTA}-[d2Nal]RWDH[dR]W[Bpa]P[azaGly]-NH2)	~13
CN(C(=O)CN1CCN(CC(=O)O)CCN(CC(=O)O)CCN(CC(=O)O)CC1)[C@H](Cc1ccc2ccccc2c1)C(=O)N[C@@H](CCCNC(=N)N)C(=O)N[C@@H](Cc1c[nH]c2ccccc12)C(=O)N[C@@H](CO)C(=O)N[C@@H](Cc1c[nH]cn1)C(=O)N[C@H](CCCNC(=N)N)C(=O)N[C@@H](Cc1c[nH]c2ccccc12)C(=O)N[C@@H](Cc1ccc(C(=O)c2ccccc2)cc1)C(=O)N1CCC[C@H]1C(=O)NNC(N)=O [BRU-2965]	~2
N=C(N)NCCC[C@H](NC(=O)[C@@H](Cc1ccc2ccccc2c1)NC(=O)CN1CCN(CC(=O)O)CCN(CC(=O)O)CCN(CC(=O)O)CC1)C(=O)N[C@@H](CCC(=O)O)C(=O)N[C@@H](CO)C(=O)N[C@@H](Cc1c[nH]cn1)C(=O)N[C@H](CCCNC(=N)N)C(=O)N[C@@H](Cc1c[nH]c2ccccc12)C(=O)N[C@@H](Cc1ccc(C(=O)c2ccccc2)cc1)C(=O)N1CCC[C@H]1C(=O)NNC(N)=O [BRU-3110] ({DOTA}-[d2Nal]RESH[dR]W[Bpa]P[azaGly]-NH2; C-terminus assumed)	~8
